US10351546B2, “Pyridin-3-yl acetic acid derivatives as inhibitors of human immunodeficiency virus replication” (priority 2015, dated 2019)

test system: NL-RLuc virus; test: Inhibition of HIV replication (NL-RLuc luciferase reporter virus in MT-2 cells); assay type: cell-based; details: Human immunodeficiency virus 1, MT2, 120 h, read-out: Activity
Procedure, shortened: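 MT-2 cells were infected with NL4-3-derived virus carrying Renilla luciferase in place of part of nef, in RPMI/10% FBS, with serial compound dilutions. Luciferase read after 5 days of multicycle replication. EC50 from the median effect equation, at least 2 experiments.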

| SMILES | EC50 [µM] |
| --- | --- |
| Cc1cccc(Cl)c1CN1CCc2cc(-c3c(N)nc(C)c([C@H](OC(C)(C)C)C(=O)O)c3N3CCC(C)(C)CC3)ccc2C1 [Example 164, (S)-2-(6-Amino-5-(2-(2-chloro-6-methylbenzyl)-1,2,3,4-tetrahydroisoquinolin-6-yl)-4-(4,4-dimethylpiperidin-1-yl)-2-methylpyridin-3-yl)-2-(tert-butoxy)acetic acid] | < 0.1 |
| Cc1nc(CNCC2CCCCC2)c(-c2ccc(OCCc3ccc(F)cc3)cc2)c(N2CCC(C)(C)CC2)c1[C@H](OC(C)(C)C)C(=O)O [Example 99, (S)-2-(tert-Butoxy)-2-(6-(((cyclohexylmethyl)amino)methyl)-4-(4,4-dimethylpiperidin-1-yl)-5-(4-(4-fluorophenethoxy)phenyl)-2-methylpyridin-3-yl)acetic acid] | < 0.1 |
| Cc1nc(CC2CCCCC2)c(-c2ccc(OCCc3ccc(F)cc3)cc2)c(N2CCC(C)(C)CC2)c1[C@H](OC(C)(C)C)C(=O)O [Example 172, (S)-2-(tert-Butoxy)-2-(6-(cyclohexylmethyl)-4-(4,4-dimethylpiperidin-1-yl)-5-(4-(4-fluorophenethoxy)phenyl)-2-methylpyridin-3-yl)acetic acid] | < 0.1 |
| Cc1cccc(Cl)c1CN1CCc2cc(-c3c(CN4CCC5(CCC5)CC4)nc(C)c([C@H](OC(C)(C)C)C(=O)O)c3N3CCC(C)(C)CC3)ccc2C1 [Example 180, (S)-2-(6-((7-Azaspiro[3.5]nonan-7-yl)methyl)-5-(2-(2-chloro-6-methylbenzyl)-1,2,3,4-tetrahydroisoquinolin-6-yl)-4-(4,4-dimethylpiperidin-1-yl)-2-methylpyridin-3-yl)-2-(tert-butoxy)acetic acid] | < 0.1 |
| Cc1nc(-c2cn(C)nn2)c(-c2ccc(OCCc3ccc(F)cc3)cc2)c(N2CCC(C)(C)CC2)c1[C@H](OC(C)(C)C)C(=O)O [Example 169, (S)-2-(tert-butoxy)-2-(4-(4,4-dimethylpiperidin-1-yl)-5-(4-(4-fluorophenethoxy)phenyl)-2-methyl-6-(1-methyl-1H-1,2,3-triazol-4-yl)pyridin-3-yl)acetic acid] | < 0.1 |
| Cc1nc(N2CCCCC2)c(-c2ccc(OCCc3ccc(F)cc3)cc2)c(N2CCC(C)(C)CC2)c1[C@H](OC(C)(C)C)C(=O)O [Example 53, (S)-2-(tert-Butoxy)-2-(4-(4,4-dimethylpiperidin-1-yl)-5-(4-(4-fluorophenethoxy)phenyl)-2-methyl-6-(piperidin-1-yl)pyridin-3-yl)acetic acid] | < 0.1 |
| Cc1cc(F)ccc1CN1CCc2cc(-c3c(CN4CCCC(F)C4)nc(C)c([C@H](OC(C)(C)C)C(=O)O)c3N3CCC(C)(C)CC3)ccc2C1 (stereo partly drawn) [Example 131, (2S)-2-(tert-Butoxy)-2-(4-(4,4-dimethylpiperidin-1-yl)-5-(2-(4-fluoro-2-methylbenzyl)-1,2,3,4-tetrahydroisoquinolin-6-yl)-6-((3-fluoropiperidin-1-yl)methyl)-2-methylpyridin-3-yl)acetic acid] | < 0.1 |
| Cc1nc(COCCN2CCOCC2)c(-c2ccc(OCCc3ccc(F)cc3)cc2)c(N2CCC(C)(C)CC2)c1[C@H](OC(C)(C)C)C(=O)O [Example 24, (S)-2-(tert-Butoxy)-2-(4-(4,4-dimethylpiperidin-1-yl)-5-(4-(4-fluorophenethoxy)phenyl)-2-methyl-6-((2-morpholinoethoxy)methyl)pyridin-3-yl)acetic acid] | < 0.1 |
| Cc1nc(COCCN2CCCCC2)c(-c2ccc(OCCc3ccc(F)cc3)cc2)c(N2CCC(C)(C)CC2)c1[C@H](OC(C)(C)C)C(=O)O [Example 27, (S)-2-(tert-Butoxy)-2-(4-(4,4-dimethylpiperidin-1-yl)-5-(4-(4-fluorophenethoxy)phenyl)-2-methyl-6-((2-(piperidin-1-yl)ethoxy)methyl)pyridin-3-yl)acetic acid] | < 0.1 |
| Cc1cc(F)ccc1CN1CCc2cc(-c3c(CN4CCC(F)(F)CC4)nc(C)c([C@H](OC(C)(C)C)C(=O)O)c3N3CCC(C)(C)CC3)ccc2C1 [Example 128, (S)-2-(tert-Butoxy)-2-(6-((4,4-difluoropiperidin-1-yl)methyl)-4-(4,4-dimethylpiperidin-1-yl)-5-(2-(4-fluoro-2-methylbenzyl)-1,2,3,4-tetrahydroisoquinolin-6-yl)-2-methylpyridin-3-yl)acetic acid] | < 0.1 |
| Cc1cc(F)ccc1CN1CCc2cc(-c3c(CN4CCOCC4)nc(C)c([C@H](OC(C)(C)C)C(=O)O)c3N3CCC(C)(C)CC3)ccc2C1 [Example 121, (S)-2-(tert-Butoxy)-2-(4-(4,4-dimethylpiperidin-1-yl)-5-(2-(4-fluoro-2-methylbenzyl)-1,2,3,4-tetrahydroisoquinolin-6-yl)-2-methyl-6-(morpholinomethyl)pyridin-3-yl)acetic acid] | < 0.1 |
| Cc1nc(CO)c(-c2ccc3c(c2)CCN(c2ncnc4c2oc2ccccc24)C3)c(N2CCC(C)(C)CC2)c1[C@H](OC(C)(C)C)C(=O)O [Example 168, (S)-2-(5-(2-(Benzofuro[3,2-d]pyrimidin-4-yl)-1,2,3,4-tetrahydroisoquinolin-6-yl)-4-(4,4-dimethylpiperidin-1-yl)-6-(hydroxymethyl)-2-methylpyridin-3-yl)-2-(tert-butoxy)acetic acid] | < 0.1 |
| Cc1nc(CN(C)CC2CCCCC2)c(-c2ccc(OCCc3ccc(F)cc3)cc2)c(N2CCC(C)(C)CC2)c1[C@H](OC(C)(C)C)C(=O)O [Example 100, (S)-2-(tert-Butoxy)-2-(6-(((cyclohexylmethyl)(methyl)amino)methyl)-4-(4,4-dimethylpiperidin-1-yl)-5-(4-(4-fluorophenethoxy)phenyl)-2-methylpyridin-3-yl)acetic acid] | < 0.1 |
| Cc1nc(COCC2CNC2)c(-c2ccc(OCCc3ccc(F)cc3)cc2)c(N2CCC(C)(C)CC2)c1[C@H](OC(C)(C)C)C(=O)O [Example 22, (S)-2-(6-((Azetidin-3-ylmethoxy)methyl)-4-(4,4-dimethylpiperidin-1-yl)-5-(4-(4-fluorophenethoxy)phenyl)-2-methylpyridin-3-yl)-2-(tert-butoxy)acetic acid] | < 0.1 |
| Cc1nc(Cn2cnnc2C)c(-c2ccc(OCCc3ccc(F)cc3)cc2)c(N2CCC(C)(C)CC2)c1[C@H](OC(C)(C)C)C(=O)O [Example 33, (S)-2-(tert-butoxy)-2-(4-(4,4-dimethylpiperidin-1-yl)-5-(4-(4-fluorophenethoxy)phenyl)-2-methyl-6-((3-methyl-4H-1,2,4-triazol-4-yl)methyl)pyridin-3-yl)acetic acid] | < 0.1 |
| Cc1nc(CN2CCC(C)(C)CC2)c(-c2ccc(OCCc3ccc(F)cc3)cc2)c(N2CCC(C)(C)CC2)c1[C@H](OC(C)(C)C)C(=O)O [Example 88, (S)-2-(tert-Butoxy)-2-(4-(4,4-dimethylpiperidin-1-yl)-6-((4,4-dimethylpiperidin-1-yl)methyl)-5-(4-(4-fluorophenethoxy)phenyl)-2-methylpyridin-3-yl)acetic acid] | < 0.1 |
| Cc1nc(COCCN2CCS(=O)(=O)CC2)c(-c2ccc(OCCc3ccc(F)cc3)cc2)c(N2CCC(C)(C)CC2)c1[C@H](OC(C)(C)C)C(=O)O [Example 28, (S)-2-(tert-Butoxy)-2-(4-(4,4-dimethylpiperidin-1-yl)-6-((2-(1,1-dioxidothiomorpholino)ethoxy)methyl)-5-(4-(4-fluorophenethoxy)phenyl)-2-methylpyridin-3-yl)acetic acid] | < 0.1 |
| Cc1cc(F)ccc1CN1CCc2cc(-c3c(CN)nc(C)c([C@H](OC(C)(C)C)C(=O)O)c3N3CCC(C)(C)CC3)ccc2C1 [Example 139, (S)-2-(6-(Aminomethyl)-4-(4,4-dimethylpiperidin-1-yl)-5-(2-(4-fluoro-2-methylbenzyl)-1,2,3,4-tetrahydroisoquinolin-6-yl)-2-methylpyridin-3-yl)-2-(tert-butoxy)acetic acid] | < 0.1 |
| Cc1nc(CNCc2ccncc2)c(-c2ccc(OCCc3ccc(F)cc3)cc2)c(N2CCC(C)(C)CC2)c1[C@H](OC(C)(C)C)C(=O)O [Example 74, (S)-2-(tert-Butoxy)-2-(4-(4,4-dimethylpiperidin-1-yl)-5-(4-(4-fluorophenethoxy)phenyl)-2-methyl-6-(((pyridin-4-ylmethyl)amino)methyl)pyridin-3-yl)acetic acid] | < 0.1 |
| Cc1nc(C(=O)N(C)CC2CCOCC2)c(-c2ccc(OCCc3ccc(F)cc3)cc2)c(N2CCC(C)(C)CC2)c1[C@H](OC(C)(C)C)C(=O)O [Example 41, (S)-2-(tert-Butoxy)-2-(4-(4,4-dimethylpiperidin-1-yl)-5-(4-(4-fluorophenethoxy)phenyl)-2-methyl-6-(methyl((tetrahydro-2H-pyran-4-yl)methyl)carbamoyl)pyridin-3-yl)acetic acid] | < 0.1 |
| Cc1cc(F)ccc1CN1CCc2cc(-c3c(CNC(=O)C(=O)N(C)C)nc(C)c([C@H](OC(C)(C)C)C(=O)O)c3N3CCC(C)(C)CC3)ccc2C1 [Example 142, (S)-2-(tert-Butoxy)-2-(6-((2-(dimethylamino)-2-oxoacetamido)methyl)-4-(4,4-dimethylpiperidin-1-yl)-5-(2-(4-fluoro-2-methylbenzyl)-1,2,3,4-tetrahydroisoquinolin-6-yl)-2-methylpyridin-3-yl)acetic acid] | < 0.1 |
| Cc1nc(CN2CCOCC2)c(-c2ccc(OCCc3ccc(F)cc3)cc2)c(N2CCC(C)(C)CC2)c1[C@H](OC(C)(C)C)C(=O)O [Example 70, (S)-2-(tert-Butoxy)-2-(4-(4,4-dimethylpiperidin-1-yl)-5-(4-(4-fluorophenethoxy)phenyl)-2-methyl-6-(morpholinomethyl)pyridin-3-yl)acetic acid] | < 0.1 |

same assay, conditions: Human immunodeficiency virus 1, MT2, 120 h, read-out: EC50 μM

| SMILES | EC50 [µM] |
| --- | --- |
| Cc1nc(COCCN2CCOCC2)c(-c2ccc(OCCc3ccc(F)cc3)cc2)c(N2CCC(C)(C)CC2)c1[C@H](OC(C)(C)C)C(=O)O [Example 24, (S)-2-(tert-Butoxy)-2-(4-(4,4-dimethylpiperidin-1-yl)-5-(4-(4-fluorophenethoxy)phenyl)-2-methyl-6-((2-morpholinoethoxy)methyl)pyridin-3-yl)acetic acid] | 0.001 |
| Cc1nc(CO)c(-c2ccc3c(c2)CCN(c2ncnc4c2oc2ccccc24)C3)c(N2CCC(C)(C)CC2)c1[C@H](OC(C)(C)C)C(=O)O [Example 168, (S)-2-(5-(2-(Benzofuro[3,2-d]pyrimidin-4-yl)-1,2,3,4-tetrahydroisoquinolin-6-yl)-4-(4,4-dimethylpiperidin-1-yl)-6-(hydroxymethyl)-2-methylpyridin-3-yl)-2-(tert-butoxy)acetic acid] | 0.001 |
| Cc1nc(CN(C)CC2CCCCC2)c(-c2ccc(OCCc3ccc(F)cc3)cc2)c(N2CCC(C)(C)CC2)c1[C@H](OC(C)(C)C)C(=O)O [Example 100, (S)-2-(tert-Butoxy)-2-(6-(((cyclohexylmethyl)(methyl)amino)methyl)-4-(4,4-dimethylpiperidin-1-yl)-5-(4-(4-fluorophenethoxy)phenyl)-2-methylpyridin-3-yl)acetic acid] | 0.003 |

same assay, conditions: read-out: Activity; NL-RLuc virus in MT-2 cells, 5 days of incubation, luciferase readout

| SMILES | EC50 [µM] |
| --- | --- |
| Cc1cc(F)ccc1CN1CCc2cc(-c3c(C(C)O)nc(C)c([C@H](OC(C)(C)C)C(=O)O)c3N3CCC(C)(C)CC3)ccc2C1 (single isomer, unassigned) [Example 153] | < 0.1 |
| Cc1cc(F)ccc1CN1CCc2cc(-c3c(C(C)N(C)CC4CCOCC4)nc(C)c([C@H](OC(C)(C)C)C(=O)O)c3N3CCC(C)(C)CC3)ccc2C1 (single isomer, unassigned) [Example 151] | < 0.1 |
